Measured values: patent US7160725B2, “Hedgehog signaling promotes the formation of three dimensional cartilage matrices” (Curis, Inc., priority 2001, dated 2007)
“Also recorded” adds a separate entry of the source.

Key:
Format in all cases: cell-based, human
Mesenchymal stem cells [1] = test: Change in mesenchymal stem cell behavior following factor treatment (culture observation)
Method: Mesenchymal stem cells were derived from human volunteers under general anesthesia. Bone marrow was harvested from the iliac crest by aspiration. Approximately 5 mL of bone marrow was suspended in essential medium containing 20% fetal bovine serum (FBS), antibiotics, and glutamine (Sigma). […] The non-adherent cells, as well as any debris, is easily separated from the adherent mesenchymal stem cells.
Mesenchymal stem cells were plated at a density of 1×10^6/mL in a six well plate. Following adhesion of the cells to the plate, cells were treated with either medium containing 20% FBS, with medium supplemented with TGFβ-1, or with medium supplemented with sonic hedgehog.
Following adhesion of cells to the plate, cells were treated with either medium containing 20% FBS (negative control), medium containing 1 ng/mL TGFβ-1, or medium containing 100 ng/mL of the lipid modified N-terminal fragment of sonic hedgehog. In all cases, the medium was changes twice per week throughout the duration of the experiment.

Mesenchymal stem cells [2] = test: Immunohistochemistry of paraffin sections of treated tissue; details: 100 ng/mL lipid modified sonic hedgehog; 21 days
Method: (§1) Mesenchymal stem cell cultures were established, as described in detail above. Cells were cultured in the presence of 20% FBS, 1 ng/mL TGFβ-1, or 100 ng/mL lipid modified sonic hedgehog, and the medium was changed twice per week. After 21 days in culture, tissue was harvested, and fixed overnight in formaline solution. Fixed tissue was washed, dehydrated, embedded in paraffin, and 4 μm sections were cut using a microtome. Sections were mounted on adhesive slides, and processed for histology and immunohistochemistry.
Mounted paraffin sections were processed for immunohistochemistry with an automatic stainer (DAKO TechMate™) using indirect streptavidin-biotin methods with a Fuchsintype chromogen. The following primary antibodies were used: vimentin, collagen II, Indian hedgehog, PTHrp, BMPR-IA, BMPR-IB, and BMPR-II. Immunohistochemistry was by standard methods except for the PTHrp antibody which required incubation of the tissue with proteinase K.

Mesenchymal stem cells [3] = test: Hematoxyline-eosine staining of paraffin sections of treated tissue; details: 100 ng/mL lipid modified sonic hedgehog; 21 days
Method: as §1
Mounted paraffin sections were stained with hematoxyline-eosine, and viewed under a light microscope.

Mesenchymal stem cells [4] = test: Alcian blue staining of paraffin sections of treated tissue; details: 100 ng/mL lipid modified sonic hedgehog; 21 days; Alcian blue pH 2.5
Method: as §1
Mounted paraffin sections were stained with Alcian blue. Sections were treated with Alcian blue, pH 2.5 and 3% Acetic acid for five minutes. Following treatment, the sections were washed with ultrapure water.

[5] = 1 ng/mL TGFβ-1, after a week in culture

Substance	cell migration and clustering in the culture well (Mesenchymal stem cells [1]; 100 ng/mL lipid modified N-terminal fragment of sonic hedgehog, after the first two weeks in culture)	formation of a ball of tissue from the cell cluster (Mesenchymal stem cells [1]; 100 ng/mL lipid modified N-terminal fragment of sonic hedgehog, approximately three weeks in culture)	cell proliferation in culture (Mesenchymal stem cells [1]; 100 ng/mL lipid modified N-terminal fragment of sonic hedgehog, first two weeks in culture)	BMPR-IA immunostaining (Mesenchymal stem cells [2])	BMPR-IB immunostaining (Mesenchymal stem cells [2])	BMPR-II immunostaining (Mesenchymal stem cells [2])	Indian hedgehog immunostaining (Mesenchymal stem cells [2])	PTHrp immunostaining (Mesenchymal stem cells [2])	collagen II immunostaining (Mesenchymal stem cells [2])	vimentin immunostaining (Mesenchymal stem cells [2])	tissue organization and matrix production (hematoxyline-eosine, light microscope) (Mesenchymal stem cells [3])	Alcian blue staining (acid mucopolysaccharids) (Mesenchymal stem cells [4])	cell morphology (Mesenchymal stem cells [1]; [5])	cell size (Mesenchymal stem cells [1]; [5])	proliferative effects on mesenchymal stem cells (Mesenchymal stem cells [1]; treatment with TGFβ-1)
sonic hedgehog	appeared to migrate and clustered in one half the area of the culture well	condensed and migrated to form a small ball; also recorded: formed a grayish-white ball	proliferated efficiently	not detected; also recorded: immunonegative	immunopositive	immunopositive	immunonegative	immunopositive	strongly expressed; also recorded: strongly immunopositive	strongly immunopositive	extensive organization of the tissue, the intricate folding of the layers, and the abundant matrix production; also recorded: highly organized, contains several folded layers, and produces abundant matrix	Positive	–	–	–
TGFβ-1: TGFβ family polypeptide, added to the culture medium at 1 ng/mL	–	–	–	–	–	–	–	–	–	–	–	–	morphologically distinct	larger	robust proliferative effects
